According to US9512107B2, “Therapeutically active compositions and their methods of use” (Agios Pharmaceuticals, Inc., priority 2012, dated 2016):
Changes are numbered by the printed parent chain.

Columns and labels:
[1] = molecular target: T1, IDH2 R172K (Homo sapiens, UniProt P48735, R172K); assay: IDH2 R172K enzymatic assay (NADPH cofactor depletion, diaphorase/resazurin readout); type: biochemical; details: read-out: Enz R172K
T1 sequence (P48735 40-452 R172K): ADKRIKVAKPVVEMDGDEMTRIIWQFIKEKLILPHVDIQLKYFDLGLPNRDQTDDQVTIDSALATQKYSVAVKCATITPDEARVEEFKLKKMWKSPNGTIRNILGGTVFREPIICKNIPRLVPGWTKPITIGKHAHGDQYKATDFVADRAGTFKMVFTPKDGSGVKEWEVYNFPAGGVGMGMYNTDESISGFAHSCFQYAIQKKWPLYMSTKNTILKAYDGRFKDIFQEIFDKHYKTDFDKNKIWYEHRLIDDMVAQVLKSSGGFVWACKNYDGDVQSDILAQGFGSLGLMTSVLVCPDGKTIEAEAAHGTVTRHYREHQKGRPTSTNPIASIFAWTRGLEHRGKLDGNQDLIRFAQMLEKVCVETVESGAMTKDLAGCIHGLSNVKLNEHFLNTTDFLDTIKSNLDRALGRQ
Outline: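 Compound was preincubated with IDH2 R172K for 1 h at room temperature, then the reaction was started with substrate mix containing 50 μM NADPH and 6.3 mM α-KG. After another 1 h at room temperature, stop mix with diaphorase and resazurin consumed the remaining NADPH, and resorufin fluorescence was read.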

[2] = system: U87MG pLVX-IDH2 R140Q-neo cells; assay: U87MG pLVX-IDH2 R140Q-neo cell based assay, 2-HG in media by LC-MS at 48 hours; details: Homo sapiens, U-87 MG
Outline: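 U87MG cells stably expressing IDH2 R140Q were seeded overnight, then exposed to compound at 0.2% final DMSO at 37 °C, 5% CO2. 2-HG in the medium was quantified by LC-MS at 48 h. Growth inhibition was read by CellTiter-Glo luminescence at 72 h.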

[3] = molecular target: T2, IDH2 R140Q (Homo sapiens, UniProt P48735, R140Q); assay: IDH2 R140Q enzymatic assay (cofactor depletion, similar format); type: biochemical; details: read-out: Enz R140Q
T2 sequence (P48735 40-452 R140Q): T1 sequence (P48735 40-452 R172K) with R101Q, K133R

| Compound | IC50 [1] [nM] | IC50 [2] [nM] | IC50 [3] [nM] |
| --- | --- | --- | --- |
| CC(C)Nc1nc(Nc2ccnc(C(C)(C)C#N)c2)nc(-c2cccc(C(F)(F)F)n2)n1 [Compound 671, 2-{4-[4-Isopropylamino-6-(6-trifluoromethyl-pyridin-2-yl)-[1,3,5]triazin-2-ylamino]-pyridin-2-yl}-2-methyl-propionitrile] | < 100 | < 100 | 100 to 1000 |
| CC(C)Nc1nc(Nc2ccnc(CC#N)c2)nc(-c2cccc(C(F)(F)F)n2)n1 [Compound 672, {4-[4-Isopropylamino-6-(6-trifluoromethyl-pyridin-2-yl)-[1,3,5]triazin-2-ylamino]-pyridin-2-yl}-acetonitrile] | 100 to 1000 | < 100 | 100 to 1000 |
| CC(C)Nc1nc(Nc2ccnc(C(F)F)c2)nc(-c2cccc(C(F)F)n2)n1 [Compound 673, 6-(6-Difluoromethyl-pyridin-2-yl)-N-(2-difluoromethyl-pyridin-4-yl)-N′-isopropyl-[1,3,5]triazine-2,4-diamine] | < 100 | < 100 | 100 to 1000 |
| CC(C)Nc1nc(Nc2ccnc(C3(O)CC3)c2)nc(-c2cccc(C(F)(F)F)n2)n1 [Compound 674, 1-{4-[4-Isopropylamino-6-(6-trifluoromethyl-pyridin-2-yl)-[1,3,5]triazin-2-ylamino]-pyridin-2-yl}-cyclopropanol] | 100 to 1000 | < 100 | 100 to 1000 |
| CC(C)Nc1nc(Nc2ccnc(C(F)F)c2)nc(-c2cccc(C(C)(F)F)n2)n1 [Compound 675, 6-[6-(1,1-Difluoro-ethyl)-pyridin-2-yl]-N-(2-difluoromethyl-pyridin-4-yl)-N′-isopropyl-[1,3,5]triazine-2,4-diamine] | < 100 | < 100 | 100 to 1000 |
| CC(C)Nc1nc(Nc2ccnc(CF)c2)nc(-c2cccc(C(F)(F)F)n2)n1 [Compound 676, N-(2-Fluoromethyl-pyridin-4-yl)-N′-isopropyl-6-(6-trifluoromethyl-pyridin-2-yl)-[1,3,5]triazine-2,4-diamine] | < 100 | < 100 | 100 to 1000 |
| CC(C)Nc1nc(Nc2ccnc(C(C)(C)C#N)c2)nc(-c2cccc(C(C)(F)F)n2)n1 [Compound 677, 2-(4-{4-[6-(1,1-Difluoro-ethyl)-pyridin-2-yl]-6-isopropylamino-[1,3,5]triazin-2-ylamino}-pyridin-2-yl)-2-methyl-propionitrile] | < 100 | < 100 | 100 to 1000 |
| CC(C)(O)CNc1nc(Nc2ccnc(C(C)(C)C#N)c2)nc(-c2cccc(C(F)(F)F)n2)n1 [Compound 678, 2-{4-[4-(2-Hydroxy-2-methyl-propylamino)-6-(6-trifluoromethyl-pyridin-2-yl)-[1,3,5]triazin-2-ylamino]-pyridin-2-yl}-2-methyl-propionitrile] | 100 to 1000 | < 100 | 1000 to 10000 |
| COC(=O)Nc1cccc(-c2nc(Nc3ccnc(C(F)(F)F)c3)nc(NC(C)C)n2)n1 [Compound 679, Methyl(6-(4-(isopropylamino)-6-((2-(trifluoromethyl)pyridin-4-yl)amino)-1,3,5-triazin-2-yl)pyridin-2-yl)carbamate] | > 10000 | 100 to 1000 | 100 to 1000 |
| CC(C)Nc1nc(Nc2ccnc(C(F)(F)F)c2)nc(-c2cccc(N)n2)n1 [Compound 687, 6-(6-aminopyridin-2-yl)-N2-isopropyl-N4-(2-(trifluoromethyl)pyridin-4-yl)-1,3,5-triazine-2,4-diamine] | < 100 | < 100 | 100 to 1000 |
| CC(C)(C)CNc1nc(Nc2ccnc(C(F)(F)F)c2)nc(-c2cccc(N)n2)n1 [Compound 689, 6-(6-aminopyridin-2-yl)-N2-neopentyl-N4-(2-(trifluoromethyl)pyridin-4-yl)-1,3,5-triazine-2,4-diamine] | < 100 | < 100 | 100 to 1000 |
